Patent US20200060276A1, “THIAZOLE COMPOUND AND HERBICIDE” (OAT Agrio Co., Ltd., priority 2017, published 2020)

What was measured:
Assay type in all cases: in vivo
[1] = tested on: Echinochloa crus-galli (L.) P. Beauv. var. formosensis Ohwi; assay: Test for Herbicidal Effect in Flooding Treatment (#1), ECHDG; conditions: flooding treatment at seeding, dose 2 kg/ha, visual observation on day 21
Method in brief: (§1)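 Flooded soil in cups was seeded 24 h after flooding, then treated with compound in acetone diluted with Tween 80-containing water, dropped onto the water surface at 2 kg/ha. After growth in a glasshouse, growth inhibition was scored visually on day 21 on a 0 (<10%) to 5 (≥90% or complete withering) scale.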

[2] = tested on: Monochoria vaginalis; assay: Test for Herbicidal Effect in Flooding Treatment (#1), MONVA; conditions: flooding treatment at seeding, dose 2 kg/ha, visual observation on day 21
Method in brief: as §1

[3] = tested on: Scirpus juncoides; assay: Test for Herbicidal Effect in Flooding Treatment (#1), SCIJU; conditions: flooding treatment at seeding, dose 2 kg/ha, visual observation on day 21
Method in brief: as §1

[4] = tested on: Cyperus microiria; assay: Test for Herbicidal Effect in Flooding Treatment (#1), CYMIC; conditions: flooding treatment at seeding, dose 2 kg/ha, visual observation on day 21
Method in brief: as §1

[5] = tested on: Echinochloa crus-galli (L.) P. Beauv. var. formosensis Ohwi; assay: Test for Herbicidal Effect in Flooding Treatment (#2), ECHDG at 2-2.5 leaf stage; conditions: flooding treatment at 2-2.5 leaf stage, dose 0.2 kg/ha, visual observation on day 21
Method in brief: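 Flooded muddy soil was seeded with the weed, and at 2–2.5 leaf stage compound in acetone/Tween 80 water was dropped on the water surface at 0.2 kg/ha. Plants were kept in a glasshouse and scored visually on day 21 from 0 (<10% growth inhibition) to 5 (≥90% or complete withering).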

SMILES | ECHDG #1 herbicidal effect (growth inhibition grade) [1] | MONVA #1 herbicidal effect (growth inhibition grade) [2] | SCIJU #1 herbicidal effect (growth inhibition grade) [3] | CYMIC #1 herbicidal effect (growth inhibition grade) [4] | ECHDG (2-2.5L) #2 herbicidal effect (growth inhibition grade) [5]
CCOc1cc(CS(=O)(=O)c2ncc(Cl)s2)cc(C(F)(F)F)c1 [Compound 1C-79] | 5 (Growth inhibition effect is equal to or greater than 90%, or complete withering is achieved) | 5 (Growth inhibition effect is equal to or greater than 90%, or complete withering is achieved) | 5 (Growth inhibition effect is equal to or greater than 90%, or complete withering is achieved) | 5 (Growth inhibition effect is equal to or greater than 90%, or complete withering is achieved) | 2 (Growth inhibition effect is equal to or greater than 30%, and less than 50%)
CCOc1c(Cl)cc(F)cc1CS(=O)(=O)c1ncc(Cl)s1 [Compound 1C-22] | 5 (Growth inhibition effect is equal to or greater than 90%, or complete withering is achieved) | 5 (Growth inhibition effect is equal to or greater than 90%, or complete withering is achieved) | 5 (Growth inhibition effect is equal to or greater than 90%, or complete withering is achieved) | 5 (Growth inhibition effect is equal to or greater than 90%, or complete withering is achieved) | 5 (Growth inhibition effect is equal to or greater than 90%, or complete withering is achieved)
COc1cc(Cl)c(CS(=O)(=O)c2ncc(Cl)s2)c(Cl)c1 [Compound 1C-91] | 5 (Growth inhibition effect is equal to or greater than 90%, or complete withering is achieved) | 5 (Growth inhibition effect is equal to or greater than 90%, or complete withering is achieved) | 5 (Growth inhibition effect is equal to or greater than 90%, or complete withering is achieved) | 5 (Growth inhibition effect is equal to or greater than 90%, or complete withering is achieved) | 5 (Growth inhibition effect is equal to or greater than 90%, or complete withering is achieved)
COc1cccc(CS(=O)(=O)c2ncc(Cl)s2)c1 [Compound 1C-65] | 5 (Growth inhibition effect is equal to or greater than 90%, or complete withering is achieved) | 5 (Growth inhibition effect is equal to or greater than 90%, or complete withering is achieved) | 5 (Growth inhibition effect is equal to or greater than 90%, or complete withering is achieved) | 5 (Growth inhibition effect is equal to or greater than 90%, or complete withering is achieved) | 5 (Growth inhibition effect is equal to or greater than 90%, or complete withering is achieved)
COc1ccccc1CS(=O)(=O)c1ncc(Cl)s1 [Compound 1C-2] | 5 (Growth inhibition effect is equal to or greater than 90%, or complete withering is achieved) | 5 (Growth inhibition effect is equal to or greater than 90%, or complete withering is achieved) | 5 (Growth inhibition effect is equal to or greater than 90%, or complete withering is achieved) | 5 (Growth inhibition effect is equal to or greater than 90%, or complete withering is achieved) | 5 (Growth inhibition effect is equal to or greater than 90%, or complete withering is achieved)
COc1cccc(CS(=O)(=O)c2ncc(Cl)s2)c1Cl [Compound 1C-66] | 5 (Growth inhibition effect is equal to or greater than 90%, or complete withering is achieved) | 5 (Growth inhibition effect is equal to or greater than 90%, or complete withering is achieved) | 5 (Growth inhibition effect is equal to or greater than 90%, or complete withering is achieved) | 5 (Growth inhibition effect is equal to or greater than 90%, or complete withering is achieved) | 4 (Growth inhibition effect is equal to or greater than 70%, and less than 90%)
CCOc1ccc(F)c(CS(=O)(=O)c2ncc(Cl)s2)c1F [Compound 1C-82] | 5 (Growth inhibition effect is equal to or greater than 90%, or complete withering is achieved) | 5 (Growth inhibition effect is equal to or greater than 90%, or complete withering is achieved) | 5 (Growth inhibition effect is equal to or greater than 90%, or complete withering is achieved) | 5 (Growth inhibition effect is equal to or greater than 90%, or complete withering is achieved) | 5 (Growth inhibition effect is equal to or greater than 90%, or complete withering is achieved)
CCOc1ccc(CS(=O)(=O)c2ncc(Cl)s2)cc1C(F)(F)F [Compound 1C-98] | 5 (Growth inhibition effect is equal to or greater than 90%, or complete withering is achieved) | 5 (Growth inhibition effect is equal to or greater than 90%, or complete withering is achieved) | 5 (Growth inhibition effect is equal to or greater than 90%, or complete withering is achieved) | 5 (Growth inhibition effect is equal to or greater than 90%, or complete withering is achieved) | 1 (Growth inhibition effect is equal to or greater than 10%, and less than 30%)
COc1ccc(Cl)c(CS(=O)(=O)c2ncc(Cl)s2)c1 [Compound 1C-70] | 5 (Growth inhibition effect is equal to or greater than 90%, or complete withering is achieved) | 5 (Growth inhibition effect is equal to or greater than 90%, or complete withering is achieved) | 5 (Growth inhibition effect is equal to or greater than 90%, or complete withering is achieved) | 5 (Growth inhibition effect is equal to or greater than 90%, or complete withering is achieved) | 4 (Growth inhibition effect is equal to or greater than 70%, and less than 90%)
O=S(=O)(Cc1c(F)cc(OCCC(F)(F)F)cc1F)c1ncc(Cl)s1 [Compound 1C-117] | 5 (Growth inhibition effect is equal to or greater than 90%, or complete withering is achieved) | 5 (Growth inhibition effect is equal to or greater than 90%, or complete withering is achieved) | 5 (Growth inhibition effect is equal to or greater than 90%, or complete withering is achieved) | 5 (Growth inhibition effect is equal to or greater than 90%, or complete withering is achieved) | 4 (Growth inhibition effect is equal to or greater than 70%, and less than 90%)
CCOc1cc(F)cc(F)c1CS(=O)(=O)c1ncc(Cl)s1 [Compound 1C-31] | 5 (Growth inhibition effect is equal to or greater than 90%, or complete withering is achieved) | 5 (Growth inhibition effect is equal to or greater than 90%, or complete withering is achieved) | 5 (Growth inhibition effect is equal to or greater than 90%, or complete withering is achieved) | 5 (Growth inhibition effect is equal to or greater than 90%, or complete withering is achieved) | 5 (Growth inhibition effect is equal to or greater than 90%, or complete withering is achieved)
O=S(=O)(Cc1cc(Br)ccc1OC(F)F)c1ncc(Cl)s1 [Compound 1C-40] | 5 (Growth inhibition effect is equal to or greater than 90%, or complete withering is achieved) | 5 (Growth inhibition effect is equal to or greater than 90%, or complete withering is achieved) | 5 (Growth inhibition effect is equal to or greater than 90%, or complete withering is achieved) | 5 (Growth inhibition effect is equal to or greater than 90%, or complete withering is achieved) | 5 (Growth inhibition effect is equal to or greater than 90%, or complete withering is achieved)
CCOc1c(C)cc(F)cc1CS(=O)(=O)c1ncc(Cl)s1 [Compound 1C-25] | 5 (Growth inhibition effect is equal to or greater than 90%, or complete withering is achieved) | 5 (Growth inhibition effect is equal to or greater than 90%, or complete withering is achieved) | 5 (Growth inhibition effect is equal to or greater than 90%, or complete withering is achieved) | 5 (Growth inhibition effect is equal to or greater than 90%, or complete withering is achieved) | 5 (Growth inhibition effect is equal to or greater than 90%, or complete withering is achieved)
